Laboratory results taken from US11339163B2, “BRaf inhibitors and use thereof for treatment of cutaneous reactions” (Lutris Pharma Ltd., priority 2017, dated 2022).
Values after ≈ are worked out from the molar mass of the structure shown. Read-outs that look alike come from different tables or passages of the source.

How the values were obtained:
[1] = system: BALB/c-3T3 mouse fibroblasts; assay: 3T3 neutral red uptake phototoxicity assay; type: cell-based; conditions: for IC50: Mus musculus, BALB/c3T3, light or radiation study
Protocol: Therefore, the compounds of the present disclosure were screened for phototoxicity using the 3T3 natural red uptake assay.
In brief, BALB/c-3T3 mouse fibroblasts (originally obtained from ATCC) were seeded in 96-well plates at 12,000 cells per well, and grown for 24 hr. Test compounds and the positive control (chlorpromazine) were solubilized and serially diluted in DMSO. The negative control (histidine) was solubilized and diluted in HBSS. A dilution for all test articles was then made into HBSS at the final testing concentrations. At the start of the assay, the growth medium was removed from the plates and replaced with test agent dilution. Six replicates were used for each concentration. Cells were incubated in the dark with test article for 1 h, exposed to UVA light (2.5 J/cm2 over 18 min) and incubated 24 hrs. in the dark. A parallel non-irradiated plate was treated similarly, except it was stored in the dark, rather than illuminated.
For Neutral Red staining, medium was removed and fresh medium containing 25 μg/mL of Neutral Red (Sigma) was added. After three hours incubation, the cells were washed with PBS, and the cellular dye was solubilized with 1% acetic acid in 50% ethanol. Cellular Neutral Red was measured by its absorbance at 540 nm.
Data analysis: An IC50 (concentration that causes 50% reduction in viability) was calculated for each condition by linear interpolation.
A Photo-Irritation Factor (PIF) was calculated: PIF=IC50(−Irr)/IC50(+Irr)
PIF>5 indicates phototoxicity; 2<PIF<5 indicates probable phototoxicity; PIF<2 indicates no phototoxicity
In addition, the Mean Photo Effect (MPE) was calculated by comparison of the complete concentration-response curves. MPE is a weighted average of the difference in response of equivalent doses normalized by the shift in IC50.
MPE>0.15 indicates phototoxicity; 0.1<MPE<0.15 indicates probable phototoxicity; MPE<0.1 indicates no phototoxicity.

[2] = system: ERK phosphorylation in HEKa cells; assay: phospho-ERK in HEKa cells following EGFR inhibitors (Western blot); type: cell-based, human
Protocol: Human normal keratinocyte cells HEKa were purchased from Gibco Rhenium and seeded in 10 cm dishes (300,000 cells/dish) and incubated overnight at 37° C., 5% CO2. Next morning, the medium was replaced to a starvation medium for 2 hours and then the cells were treated for 2 additional hours with the test compounds. Post incubation, the cells were lyzed with RIPA and the protein extracts were analyzed by western blot for Phospho-ERK and total ERK. Untreated cells and 0.1% DMSO treated cells were used as negative control. HKGS growth factors was used as a positive control.
Western blot: 7.5 μg of total extract was loaded on 10% acrylamide gel. Following transfer, the membranes were blocked with TBST/5% skimmed milk and then incubated with Mouse anti Phospho-ERK (1:1000 in TBST 5% BSA, ON at 4° C.) and goat anti Mouse HRP (1:10,000 in TBST 5% BSA, 1-hour RT). The membranes were exposed using SuperSignal West Pico Chemiluminescent Substrate.
The HRP was then inactivated by incubating the membranes for 1 hour with 0.5% sodium azide Following washes and ECL exposure in order to ensure absence of signal, the membranes were re-blocked for 15 min with TBST/5% skimmed milk and then incubated with Rabbit anti total ERK2 (1:500 in TBST 5% BSA, ON at 4° C.), goat anti Rabbit HRP (1:5,000 in TBST 5% BSA, 1-hour RT) and finally exposed using the SuperSignal West Pico Chemiluminescent Substrate. The films were scanned and the signal were quantified using ImageJ software. The results were calculated as Phospho-ERK/total ERK.
HKGS was used as a positive control.

[3] = MPE>0.15 phototoxicity, 0.1-0.15 probable, <0.1 none
[4] = non-irradiated, Neutral Red, read-out: Cell Viability IC50 Minus UVA
[5] = PIF=IC50(−Irr)/IC50(+Irr), >5 phototoxicity, 2-5 probable, <2 none

**Q.** Which results are given for `CN(C)CCCN1c2ccccc2Sc2ccc(Cl)cc21` [Chloropromazine, chlorpromazine]?
**A.** Comment (photo-toxicity assessment) [1]: Phototoxic; Mean MPE [1, 3]: 0.477; IC50 [1, 4]: 31 µg/mL (≈ 97.2 µM); Mean PIF [1, 5]: 31.6

**Q.** Which “Comment (photo-toxicity assessment)” value [1] does the source give for `Cc1ccc2c(Nc3ccc(Cl)cc3)nccc2c1Nc1ncccc1-c1ncnc2[nH]cnc12` [Compound C-1] here?
**A.** Non

**Q.** What about the “phototoxicity (3T3 NRU), stated in words” value [1] of the same compound?
**A.** did not show phototoxicity

**Q.** And the IC50 ([1]; 0.3 h, read-out: Cell Viability IC50 Plus UVA)?
**A.** 18.1 µg/mL

**Q.** And the IC50 ([1]; read-out: Cell Viability IC50 Minus UVA)?
**A.** 14 µg/mL (≈ 29.2 µM)

**Q.** And the “Mean MPE” value ([1]; mouse, 24 h)?
**A.** −0.011

**Q.** What about the “Mean PIF” value ([1]; mouse, 24 h) of the same compound?
**A.** 0.8

**Q.** For `C#Cc1cccc(Nc2ncnc3cc(OCCOC)c(OCCOC)cc23)c1` [Erlotinib, erlotinib, reference compound], which “phospho ERK compared to HKGS treated cells” value [2] is on record?
**A.** decreased

**Q.** How did the “Mean MPE” value [1, 3] turn out when `N[C@@H](Cc1c[nH]cn1)C(=O)O` [Histidine, histidine] was run?
**A.** 0.036

**Q.** And the IC50 ([1]; 0.3 h, UVA 2.5 J/cm2 over 18 min, Neutral Red, read-out: Cell Viability IC50 Plus UVA)?
**A.** > 1000 µg/mL

**Q.** And the IC50 [1, 4]?
**A.** > 1000 µg/mL

**Q.** What about the “Mean PIF” value [1, 5] of the same compound?
**A.** 1
